According to patent US9492471B2, “Methods of treating a disease or disorder associated with Bruton'S Tyrosine Kinase” (Celgene Avilomics Research, Inc., priority 2013, dated 2016):
Where two headings read alike, the source gives them in different places.

What was measured:
Experiment in all cases: HotSpot kinase profiling
Type in all cases: biochemical
[1] = target: T1, NEK3 (Homo sapiens, UniProt P51956)
T1 construct: purchased Reaction Biology Corp
T1 sequence (P51956 1-506): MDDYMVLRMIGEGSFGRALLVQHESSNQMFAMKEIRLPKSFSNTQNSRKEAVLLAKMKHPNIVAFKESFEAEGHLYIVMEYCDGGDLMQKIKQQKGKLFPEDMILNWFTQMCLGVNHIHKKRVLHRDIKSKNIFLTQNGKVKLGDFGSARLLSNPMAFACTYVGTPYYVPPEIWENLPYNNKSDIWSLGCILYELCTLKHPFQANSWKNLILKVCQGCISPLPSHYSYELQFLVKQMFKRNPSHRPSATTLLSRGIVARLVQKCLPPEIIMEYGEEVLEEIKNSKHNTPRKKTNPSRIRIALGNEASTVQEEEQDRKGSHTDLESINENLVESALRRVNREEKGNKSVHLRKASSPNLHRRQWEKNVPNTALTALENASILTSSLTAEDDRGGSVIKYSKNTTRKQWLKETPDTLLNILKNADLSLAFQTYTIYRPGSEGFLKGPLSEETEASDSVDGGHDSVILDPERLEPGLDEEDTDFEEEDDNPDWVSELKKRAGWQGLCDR
Procedure, shortened: (§1)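 Percent inhibition, averaged when run more than once and referenced to a DMSO negative control, came from a radioactive filter-binding readout on P81 paper. Reactions of kinase with freshly made substrate and cofactors ran for 2 h at room temperature.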

[2] = target: T2, SYK (Homo sapiens, UniProt P43405)
T2 construct: purchased Reaction Biology Corp

[3] = target: T3, ASK1/MAP3K5 (Homo sapiens, UniProt Q99683)
T3 construct: purchased Reaction Biology Corp
T3 sequence (Q99683 1-1374): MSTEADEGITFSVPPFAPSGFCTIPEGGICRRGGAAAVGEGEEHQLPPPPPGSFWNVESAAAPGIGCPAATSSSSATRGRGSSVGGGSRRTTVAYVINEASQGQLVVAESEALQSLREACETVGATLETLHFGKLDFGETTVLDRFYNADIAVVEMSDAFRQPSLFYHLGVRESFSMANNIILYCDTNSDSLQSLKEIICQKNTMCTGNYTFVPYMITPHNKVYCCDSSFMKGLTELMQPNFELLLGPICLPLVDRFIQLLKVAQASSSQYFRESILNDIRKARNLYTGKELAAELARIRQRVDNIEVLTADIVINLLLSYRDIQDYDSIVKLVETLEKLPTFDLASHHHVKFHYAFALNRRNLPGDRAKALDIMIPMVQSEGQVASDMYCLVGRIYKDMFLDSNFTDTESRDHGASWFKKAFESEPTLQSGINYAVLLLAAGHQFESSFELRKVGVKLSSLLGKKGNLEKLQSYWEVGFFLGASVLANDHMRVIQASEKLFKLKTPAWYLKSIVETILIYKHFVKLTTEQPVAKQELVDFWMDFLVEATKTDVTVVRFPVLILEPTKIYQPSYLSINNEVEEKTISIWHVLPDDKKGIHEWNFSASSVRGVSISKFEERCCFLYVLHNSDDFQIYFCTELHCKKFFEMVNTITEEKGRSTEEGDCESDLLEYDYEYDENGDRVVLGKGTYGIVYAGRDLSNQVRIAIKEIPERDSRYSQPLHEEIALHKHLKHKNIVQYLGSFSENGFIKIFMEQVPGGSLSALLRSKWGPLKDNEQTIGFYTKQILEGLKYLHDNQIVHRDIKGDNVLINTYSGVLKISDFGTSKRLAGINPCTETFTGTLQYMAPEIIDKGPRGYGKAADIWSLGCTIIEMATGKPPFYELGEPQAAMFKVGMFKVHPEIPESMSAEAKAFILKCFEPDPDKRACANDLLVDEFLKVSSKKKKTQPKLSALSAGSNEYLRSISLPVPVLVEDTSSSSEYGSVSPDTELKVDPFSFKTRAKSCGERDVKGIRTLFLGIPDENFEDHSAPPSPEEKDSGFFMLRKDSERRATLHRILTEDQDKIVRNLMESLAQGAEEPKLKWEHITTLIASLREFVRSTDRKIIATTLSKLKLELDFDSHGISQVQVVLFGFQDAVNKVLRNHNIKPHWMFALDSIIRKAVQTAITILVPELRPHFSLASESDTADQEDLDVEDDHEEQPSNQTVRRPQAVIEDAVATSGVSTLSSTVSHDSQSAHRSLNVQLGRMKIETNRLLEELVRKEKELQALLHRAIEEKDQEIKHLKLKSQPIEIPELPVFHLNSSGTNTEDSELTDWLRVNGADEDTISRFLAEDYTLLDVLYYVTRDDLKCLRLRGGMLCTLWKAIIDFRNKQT
Procedure, shortened: as §1

[4] = target: T4, SRMS (Homo sapiens, UniProt Q9H3Y6)
T4 construct: purchased Reaction Biology Corp
Procedure, shortened: as §1

[5] = read-out: % Enzyme Activity (relative to DMSO controls) Run 1
[6] = read-out: % Enzyme Activity (relative to DMSO controls) Run 2

T4 sequence (Q9H3Y6 whole entry): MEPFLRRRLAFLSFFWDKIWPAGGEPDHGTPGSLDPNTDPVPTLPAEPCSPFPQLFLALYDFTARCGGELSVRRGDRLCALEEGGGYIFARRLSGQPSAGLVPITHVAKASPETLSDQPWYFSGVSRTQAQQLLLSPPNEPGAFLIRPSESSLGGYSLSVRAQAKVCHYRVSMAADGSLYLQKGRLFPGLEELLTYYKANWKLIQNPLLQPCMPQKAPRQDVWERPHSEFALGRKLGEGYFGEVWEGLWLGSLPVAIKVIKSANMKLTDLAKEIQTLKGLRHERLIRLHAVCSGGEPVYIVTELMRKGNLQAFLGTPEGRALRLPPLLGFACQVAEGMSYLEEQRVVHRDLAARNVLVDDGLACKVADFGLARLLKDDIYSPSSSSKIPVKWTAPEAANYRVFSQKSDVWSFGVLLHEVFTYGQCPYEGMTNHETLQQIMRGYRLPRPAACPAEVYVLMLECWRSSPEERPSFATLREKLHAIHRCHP

Compound: C=CC(=O)Nc1cccc(Nc2nc(Nc3ccc(OCCOC)c(F)c3)ncc2F)c1 [Compound 2]
- inhibition at 3 µM [1]: 24.1%
- remaining activity at 3 µM [1, 5]: 76.7%
- remaining activity at 3 µM [1, 6]: 75.1%
- inhibition at 3 µM [2]: 22.4%
- remaining activity at 3 µM [2, 5]: 78%
- remaining activity at 3 µM [2, 6]: 77.1%
- inhibition at 3 µM [3]: -1.62%
- remaining activity at 3 µM [3, 5]: 101%
- remaining activity at 3 µM [3, 6]: 102%
- inhibition at 3 µM [4]: -23.1%
- remaining activity at 3 µM [4, 5]: 124%
- remaining activity at 3 µM [4, 6]: 123%
